Measurements reported in patent US5817840A, “Water soluble taxol derivatives” (The Scripps Research Institute, priority 1997, dated 1998).
Values after ≈ are worked out from the molar mass of the structure shown. Read-outs that look alike come from different tables or passages of the source.

What was measured:
physchem = details: d2o
Method: The solubilities of the synthesized protaxols in D2 O were determined by 1H NMR spectroscopy.
The resulting mixture was centrifuged for 20 minutes and the supernatant saturated solution was analysed by ^1 H NMR spectroscopy using a Bruker AMX-400 instrument and methanol or pyridine as internal standard. The concentration of the compound was determined by comparing several signals with the CH3 signal of methanol or the NCH signal of pyridine.

[1] = Taxol release from protaxols in aqueous buffer; format: physicochemical; details: aqueous buffer
Method: The derivatives in which the C-7 hydroxyl group was acetylated were extremely unstable in aqueous media losing the C-7 substituent very rapidly. The stability of the synthesized compounds was examined at various pH's and temperatures. […] Table 1A includes the half-lives of six of these compounds at pH 7.5 and 9. […] This illustrates the ability to fine-tune the rate of release of taxol to a desired set of conditions using simple chemical principles.
Protaxol 5 was dissolved in dimethylsulphoxide (DMSO) at 25° C. and immediately added to the appropriate phosphate buffer solution at the specified temperature. Aliquots were analysed using a Waters Maxima system HPLC instrument equipped with auto-injector (3.9×300 mm C18 column equipped with a precolumn; flow rate, 1.5 ml min^-1; eluant, gradient A-B, where A is 80% 100 mM ammonium acetate, buffer pH 6.0, and B is 100% methanol; ultraviolet detector). The per cent taxol released was determined from the relative areas of the peaks corresponding to protaxol 5 and taxol (the conversion was clean, and it was assumed that the two compounds have equal molar extinction coefficients).

HT-29 (colon carcinoma) = test: Cytotoxicity (sulphorhodamine B), cancer cell line, Table 1B; format: cell-based; details: Homo sapiens
Method: (§1) The cytotoxicities were determined using the sulphorhodamine B assay method (Skehan, P. et al. J. Nat. Canc. Inst. 82, 1107 (1990)).

[2] = system: 786-0 (renal cell carcinoma); test: as above; format: cell-based; details: Homo sapiens
Method: as §1

NHDF (normal human skin) = test: Cytotoxicity (sulphorhodamine B), normal cell line, Table 1B; format: cell-based
Method: as §1

[3] = system: HL-60 (promyel carcinoma); test: Cytotoxicity (sulphorhodamine B), cancer cell line, Table 1B; format: cell-based; details: Homo sapiens
Method: as §1

[4] = system: CHO (Chinese hamster ovary); test: Cytotoxicity (sulphorhodamine B), normal cell line, Table 1B; format: cell-based; details: Cricetulus griseus
Method: as §1

[5] = system: OVCAR-3 (ovarian carcinoma); test: Cytotoxicity (sulphorhodamine B), cancer cell line, Table 1B; format: cell-based; details: Homo sapiens, OVCAR-3, 72 h
Method: as §1

[6] = system: BALB/c 3T3 (normal mouse embryo); test: Cytotoxicity (sulphorhodamine B), normal cell line, Table 1B; format: cell-based
Method: as §1

H322 (lung carcinoma) = test: Cytotoxicity (sulphorhodamine B), cancer cell line, Table 1B; format: cell-based
Method: as §1

[7] = system: BT-549 (breast carcinoma); test: as above; format: cell-based; details: Homo sapiens
Method: as §1

[8] = system: UCLA-P-3 (lung carcinoma); test: as above; format: cell-based; details: Homo sapiens
Method: as §1

[9] = system: RPMI-7666 (normal human PBLs); test: Cytotoxicity (sulphorhodamine B), normal cell line, Table 1B; format: cell-based
Method: as §1

L1210 (mouse leukaemia) = test: Cytotoxicity (sulphorhodamine B), cancer cell line, Table 1B; format: cell-based
Method: as §1

SIHA (cervix carcinoma) = test: as above; format: cell-based; details: Homo sapiens
Method: as §1

[10] = system: PC-3 (prostate carcinoma); test: as above; format: cell-based; details: Homo sapiens
Method: as §1

SK (melanoma) = test: as above; format: cell-based
Method: as §1

Capan-1 (pancreatic) = test: as above; format: cell-based; details: Homo sapiens
Method: as §1

[11] = system: CHO (normal human mammary); test: Cytotoxicity (sulphorhodamine B), normal cell line, Table 1B; format: cell-based
[12] = system: MOLT-4 (T-cell leukaemia); test: Cytotoxicity (sulphorhodamine B), cancer cell line, Table 1B; format: cell-based; details: Homo sapiens
Method: as §1

MCF-7 (breast carcinoma) = test: as above; format: cell-based; details: Homo sapiens
Method: as §1

[13] = pH 7.5, 37° C., read-out: t1/2 (pH 7.5), 50% taxol release
[14] = pH 9, 37° C., read-out: t1/2 (pH 9), 50% taxol release

CC(=O)O[C@H]1C(=O)[C@]2(C)[C@@H](OC(=O)COCC(=O)O)C[C@H]3OC[C@@]3(OC(C)=O)[C@H]2[C@H](OC(=O)c2ccccc2)[C@]2(O)C[C@H](OC(=O)[C@H](OC(=O)COCC(=O)O)[C@@H](NC(=O)c3ccccc3)c3ccccc3)C(C)=C1C2(C)C [drawing 13]
solubility (physchem): 500 µg/mL (≈ 460 µM)

CC(=O)O[C@H]1C(=O)[C@@]2(C)[C@H]([C@H](OC(=O)c3ccccc3)[C@]3(O)C[C@H](OC(=O)[C@H](OC(=O)COCC(=O)O)[C@@H](NC(=O)c4ccccc4)c4ccccc4)C(C)=C1C3(C)C)[C@]1(OC(C)=O)CO[C@@H]1C[C@@H]2O [drawing 5]
solubility (physchem): 840 µg/mL (≈ 866 µM) | half-life [1, 13]: > 500 min | half-life [1, 14]: 110 min

CC(=O)O[C@H]1C(=O)[C@@]2(C)[C@H]([C@H](OC(=O)c3ccccc3)[C@]3(O)C[C@H](OC(=O)[C@H](OC(=O)OCCS(=O)(=O)c4ccc(N)cc4)[C@@H](NC(=O)c4ccccc4)c4ccccc4)C(C)=C1C3(C)C)[C@]1(OC(C)=O)CO[C@@H]1C[C@@H]2O [drawing 12]
half-life [1, 13]: > 500 min | half-life [1, 14]: 101 min

CC(=O)O[C@H]1C(=O)[C@@]2(C)[C@H]([C@H](OC(=O)c3ccccc3)[C@]3(O)C[C@H](OC(=O)[C@H](OC(=O)OCCSc4ccccc4)[C@@H](NC(=O)c4ccccc4)c4ccccc4)C(C)=C1C3(C)C)[C@]1(OC(C)=O)CO[C@@H]1C[C@@H]2O [Compound 7]
IC50 (HT-29 (colon carcinoma); HT-29, 72 h): < 1 nM | IC50 ([2]; 786-0, 72 h): 10 µM | IC50 (NHDF (normal human skin); 72 h): 1000 nM | IC50 ([3]; HL-60, 72 h): < 1 nM | IC50 ([4]; 72 h): 100 µM | IC50 [5]: < 1 nM | IC50 ([6]; BALB/c3T3, 72 h): 10 µM | IC50 (H322 (lung carcinoma); NCI-H322, 72 h): 1 nM | IC50 ([7]; BT-549, 72 h): < 1 nM | IC50 ([8]; UCLA P-3, 72 h): < 1 nM | IC50 ([9]; 72 h): 100 µM | IC50 (L1210 (mouse leukaemia); L1210, 72 h): 10 µM | IC50 (SIHA (cervix carcinoma); SiHa, 72 h): 10 µM | IC50 ([10]; 72 h): 1000 nM | IC50 (SK (melanoma); 72 h): 10 µM | IC50 (Capan-1 (pancreatic); CAPAN-1, 72 h): < 1 nM | IC50 ([11]; Homo sapiens, 72 h): 100 µM | IC50 ([12]; MOLT-4, 72 h): < 1 nM | IC50 (MCF-7 (breast carcinoma); MCF7, 72 h): 10 µM

CC(=O)O[C@H]1C(=O)[C@@]2(C)[C@H]([C@H](OC(=O)c3ccccc3)[C@]3(O)C[C@H](OC(=O)[C@H](OC(=O)OCCS(=O)(=O)c4ccccc4)[C@@H](NC(=O)c4ccccc4)c4ccccc4)C(C)=C1C3(C)C)[C@]1(OC(C)=O)CO[C@@H]1C[C@@H]2O
half-life [1, 13]: > 500 min | half-life [1, 14]: 66 min

CC(=O)O[C@H]1C(=O)[C@]2(C)[C@@H](OC(=O)COCC(=O)O)C[C@H]3OC[C@@]3(OC(C)=O)[C@H]2[C@H](OC(=O)c2ccccc2)[C@]2(O)C[C@H](OC(=O)[C@H](OC(=O)COCC(=O)O)[C@@H](NC(=O)c3ccccc3)c3ccccc3)C(C)=C1C2(C)C [Compound 11]
IC50 (HT-29 (colon carcinoma); HT-29, 72 hours, read-out: IC50): < 1 nM | IC50 ([2]; 786-0, 72 hours, read-out: IC50): 1 µM | IC50 (NHDF (normal human skin); 72 hours, read-out: IC50): 1000 nM | IC50 ([3]; HL-60, 72 hours, read-out: IC50): < 1 nM | IC50 ([4]; CHO, Chinese hamster ovary, 72 hours, read-out: IC50): 100 µM | IC50 ([6]; BALB/c3T3, BALB/c 3T3, 72 hours, read-out: IC50): 1 µM | IC50 (H322 (lung carcinoma); NCI-H322, H322, 72 hours, read-out: IC50): 1 nM | IC50 ([7]; BT-549, 72 hours, read-out: IC50): < 1 nM | IC50 ([8]; UCLA-P-3, 72 hours, read-out: IC50): 1 nM | IC50 ([9]; RPMI-7666, 72 hours, read-out: IC50): 100 µM | IC50 (L1210 (mouse leukaemia); L1210, 72 hours, read-out: IC50): 1 µM | IC50 (SIHA (cervix carcinoma); SIHA, 72 hours, read-out: IC50): 10 µM | IC50 ([10]; PC-3, 72 hours, read-out: IC50): 1000 nM | IC50 (SK (melanoma); SK melanoma, 72 hours, read-out: IC50): 10 µM | IC50 (Capan-1 (pancreatic); Capan-1, 72 hours, read-out: IC50): < 1 nM | IC50 ([11]; CHO, normal human mammary, 72 hours, read-out: IC50): 100 µM | IC50 ([12]; MOLT-4, 72 hours, read-out: IC50): < 1 nM | IC50 (MCF-7 (breast carcinoma); MCF7, CF-7 / MCF-7, 72 hours, read-out: IC50): 10 µM
